Calls of active or inactive are those of the source. The rule behind the calls is not given here.
Assays:
[1] = target: T1, Tyrosine-protein kinase JAK3 (Homo sapiens, UniProt P52333)
T1 sequence (P52333 whole entry): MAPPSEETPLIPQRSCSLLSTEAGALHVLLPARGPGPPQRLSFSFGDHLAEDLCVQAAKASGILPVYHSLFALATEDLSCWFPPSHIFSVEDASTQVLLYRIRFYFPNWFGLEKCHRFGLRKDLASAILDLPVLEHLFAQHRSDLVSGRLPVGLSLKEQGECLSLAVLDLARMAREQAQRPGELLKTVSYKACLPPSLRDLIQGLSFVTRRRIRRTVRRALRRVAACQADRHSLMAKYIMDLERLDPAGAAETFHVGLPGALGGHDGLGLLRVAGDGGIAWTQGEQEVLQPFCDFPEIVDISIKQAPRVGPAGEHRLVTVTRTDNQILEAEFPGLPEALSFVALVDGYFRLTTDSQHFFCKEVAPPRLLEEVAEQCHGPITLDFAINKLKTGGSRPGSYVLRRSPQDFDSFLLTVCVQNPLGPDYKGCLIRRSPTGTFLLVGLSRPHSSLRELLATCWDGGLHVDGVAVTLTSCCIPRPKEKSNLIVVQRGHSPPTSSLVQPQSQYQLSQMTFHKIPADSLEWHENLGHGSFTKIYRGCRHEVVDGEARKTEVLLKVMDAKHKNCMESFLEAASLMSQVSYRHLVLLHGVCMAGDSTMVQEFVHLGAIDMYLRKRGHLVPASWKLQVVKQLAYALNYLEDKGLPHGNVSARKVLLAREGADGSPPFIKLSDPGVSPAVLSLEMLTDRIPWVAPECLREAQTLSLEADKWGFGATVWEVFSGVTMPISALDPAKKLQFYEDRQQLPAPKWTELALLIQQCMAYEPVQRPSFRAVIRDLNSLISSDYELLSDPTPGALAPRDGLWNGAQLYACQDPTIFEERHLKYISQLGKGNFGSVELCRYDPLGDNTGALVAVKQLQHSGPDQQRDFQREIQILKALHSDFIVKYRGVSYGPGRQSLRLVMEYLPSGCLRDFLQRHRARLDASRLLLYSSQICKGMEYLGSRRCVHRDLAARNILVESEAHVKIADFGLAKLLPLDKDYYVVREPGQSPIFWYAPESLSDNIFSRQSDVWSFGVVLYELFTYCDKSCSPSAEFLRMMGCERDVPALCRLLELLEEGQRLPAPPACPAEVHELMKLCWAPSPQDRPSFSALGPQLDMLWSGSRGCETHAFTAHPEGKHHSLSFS

[2] = target: T2, Tyrosine-protein kinase JAK2 (Homo sapiens, UniProt O60674); assay type: ADME
[3] = target: Tyrosine-protein kinase JAK1 (Homo sapiens, UniProt P23458); experiment: Inhibition of recombinant human GST-tagged JAK1 cytoplasmic domain (866 to 1154 residues) expressed in baculovirus expression system using TK-substrate-biotin preincubated for 5 mins followed by substrate addition and measured after 30 mins by HTRF assay
[4] = target: Non-receptor tyrosine-protein kinase TYK2 (Homo sapiens, UniProt P29597); experiment: Inhibition of recombinant human N-terminal GST-tagged TYK2 cytoplasmic domain (833 to 1187 residues) expressed in baculovirus expression system using TK-substrate-biotin preincubated for 5 mins followed by substrate addition and measured after 30 mins by HTRF assay
[5] = Cytotoxicity against IL-4-treated mouse T cells assessed as reduction in cell viability at 10 uM measured after 72 hrs by MTS assay; assay type: cell-based
RAW264.7 = experiment: Cytotoxicity against mouse RAW264.7 cells assessed as reduction in cell viability at 10 uM measured after 72 hrs by MTS assay; assay type: cell-based; settings: raw264.7, 72 h
[6] = Cytotoxicity against resting mouse T cells assessed as reduction in cell viability at 10 uM measured after 72 hrs by MTS assay; assay type: cell-based
[7] = target: T3, Tyrosine-protein kinase JAK3 (Mus musculus) (UniProt Q62137); experiment: Inhibition of JAK3 in anti-CD3/-CD28 coated mouse T cells assessed as reduction in IL2-induced STAT5 phosphorylation at 10 uM preincubated for 1 hr followed by IL2 stimulation and measured after 30 mins by Western blot analysis; settings: T cell
T3 sequence (whole entry): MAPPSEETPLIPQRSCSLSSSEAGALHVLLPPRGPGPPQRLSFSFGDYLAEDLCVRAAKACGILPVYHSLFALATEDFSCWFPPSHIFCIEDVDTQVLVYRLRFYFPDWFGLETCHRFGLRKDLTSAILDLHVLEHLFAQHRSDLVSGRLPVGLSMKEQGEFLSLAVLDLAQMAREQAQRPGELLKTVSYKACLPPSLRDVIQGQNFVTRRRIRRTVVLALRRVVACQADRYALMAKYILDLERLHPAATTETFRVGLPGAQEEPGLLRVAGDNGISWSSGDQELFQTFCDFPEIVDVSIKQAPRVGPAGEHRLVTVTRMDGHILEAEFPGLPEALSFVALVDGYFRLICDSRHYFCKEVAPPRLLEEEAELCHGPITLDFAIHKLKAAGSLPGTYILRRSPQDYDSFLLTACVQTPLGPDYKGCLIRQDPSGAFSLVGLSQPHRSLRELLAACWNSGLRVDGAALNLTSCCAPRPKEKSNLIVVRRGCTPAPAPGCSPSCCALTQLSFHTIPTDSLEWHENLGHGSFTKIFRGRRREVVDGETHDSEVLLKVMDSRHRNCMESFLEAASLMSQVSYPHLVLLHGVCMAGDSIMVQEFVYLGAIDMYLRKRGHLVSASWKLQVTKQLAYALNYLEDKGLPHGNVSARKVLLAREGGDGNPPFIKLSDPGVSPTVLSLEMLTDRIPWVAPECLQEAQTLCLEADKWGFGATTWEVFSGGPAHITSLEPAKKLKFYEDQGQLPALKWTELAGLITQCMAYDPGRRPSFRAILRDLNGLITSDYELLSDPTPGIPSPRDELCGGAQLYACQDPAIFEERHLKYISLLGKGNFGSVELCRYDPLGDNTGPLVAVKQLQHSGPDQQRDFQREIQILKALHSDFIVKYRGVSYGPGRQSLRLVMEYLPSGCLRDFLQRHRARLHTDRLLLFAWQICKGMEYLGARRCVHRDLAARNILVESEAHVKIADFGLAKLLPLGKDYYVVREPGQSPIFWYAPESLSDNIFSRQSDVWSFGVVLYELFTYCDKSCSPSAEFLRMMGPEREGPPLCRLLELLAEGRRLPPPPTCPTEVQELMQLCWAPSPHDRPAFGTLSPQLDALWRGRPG

[8] = target: T3, Tyrosine-protein kinase JAK3 (Mus musculus); experiment: Inhibition of JAK3 in anti-CD3/-CD28 coated mouse T cells assessed as reduction in IL15-induced STAT5 phosphorylation at 10 uM preincubated for 1 hr followed by […] and measured after 30 mins by Western blot analysis; settings: T cell
[9] = target: T2, Tyrosine-protein kinase JAK2; experiment: Inhibition of recombinant human C-terminal His6-tagged JAK2 (808 to end residues) expressed in baculovirus infected Sf21 insect cells using Biotin-TYR1 (Biotin-(Ahx)-GAEEEIYAAFFA-COOH as substrate
Homo sapiens [10] = organism: Homo sapiens; experiment: Selectivity ratio of IC50 for inhibition of recombinant human C-terminal His6-tagged JAK2 (808 to end residues) expressed in baculovirus infected Sf21 insect cells to IC50 for inhibition of recombinant human GST-tagged JAK3 catalytic domain (811 to 1103 residues) expressed in Sf9 insect cells
Homo sapiens [11] = organism: Homo sapiens; experiment: Selectivity ratio of IC50 for inhibition of recombinant human GST-tagged JAK1 catalytic domain (845 to 1142 residues) expressed in Sf9 insect cells to IC50 for inhibition of recombinant human GST-tagged JAK3 catalytic domain (811 to 1103 residues) expressed in Sf9 insect cells

T2 sequence (O60674 whole entry, the tested form may be a part): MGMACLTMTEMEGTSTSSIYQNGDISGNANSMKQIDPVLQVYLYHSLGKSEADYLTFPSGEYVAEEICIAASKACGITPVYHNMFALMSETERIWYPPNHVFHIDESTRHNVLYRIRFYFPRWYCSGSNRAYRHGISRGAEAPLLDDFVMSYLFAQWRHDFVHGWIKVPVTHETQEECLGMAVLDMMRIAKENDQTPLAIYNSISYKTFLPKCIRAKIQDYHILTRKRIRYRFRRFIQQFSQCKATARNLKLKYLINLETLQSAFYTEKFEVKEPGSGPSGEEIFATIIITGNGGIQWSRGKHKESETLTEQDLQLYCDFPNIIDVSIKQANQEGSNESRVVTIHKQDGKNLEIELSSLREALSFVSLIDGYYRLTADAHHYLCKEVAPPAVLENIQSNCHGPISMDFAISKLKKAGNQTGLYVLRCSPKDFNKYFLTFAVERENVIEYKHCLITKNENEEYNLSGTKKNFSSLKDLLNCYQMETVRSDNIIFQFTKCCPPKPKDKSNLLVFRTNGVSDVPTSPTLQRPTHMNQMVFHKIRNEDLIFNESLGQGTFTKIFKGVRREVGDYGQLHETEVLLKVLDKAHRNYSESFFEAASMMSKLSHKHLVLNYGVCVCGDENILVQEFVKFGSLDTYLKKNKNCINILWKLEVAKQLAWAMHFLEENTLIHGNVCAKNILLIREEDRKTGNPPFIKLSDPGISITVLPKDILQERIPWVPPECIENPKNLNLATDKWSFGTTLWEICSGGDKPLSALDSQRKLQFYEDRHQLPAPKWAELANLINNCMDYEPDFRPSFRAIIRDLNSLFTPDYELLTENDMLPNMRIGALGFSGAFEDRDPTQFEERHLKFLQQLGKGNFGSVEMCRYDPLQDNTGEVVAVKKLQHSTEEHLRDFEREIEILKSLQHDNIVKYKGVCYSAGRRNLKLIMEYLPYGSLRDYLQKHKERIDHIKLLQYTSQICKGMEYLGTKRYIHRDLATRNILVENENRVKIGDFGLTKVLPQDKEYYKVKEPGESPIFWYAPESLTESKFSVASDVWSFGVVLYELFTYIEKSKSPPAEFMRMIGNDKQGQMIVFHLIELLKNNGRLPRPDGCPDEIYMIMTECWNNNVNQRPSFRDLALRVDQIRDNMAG
Non-receptor tyrosine-protein kinase TYK2, sequence (P29597 whole entry, the tested form may be a part): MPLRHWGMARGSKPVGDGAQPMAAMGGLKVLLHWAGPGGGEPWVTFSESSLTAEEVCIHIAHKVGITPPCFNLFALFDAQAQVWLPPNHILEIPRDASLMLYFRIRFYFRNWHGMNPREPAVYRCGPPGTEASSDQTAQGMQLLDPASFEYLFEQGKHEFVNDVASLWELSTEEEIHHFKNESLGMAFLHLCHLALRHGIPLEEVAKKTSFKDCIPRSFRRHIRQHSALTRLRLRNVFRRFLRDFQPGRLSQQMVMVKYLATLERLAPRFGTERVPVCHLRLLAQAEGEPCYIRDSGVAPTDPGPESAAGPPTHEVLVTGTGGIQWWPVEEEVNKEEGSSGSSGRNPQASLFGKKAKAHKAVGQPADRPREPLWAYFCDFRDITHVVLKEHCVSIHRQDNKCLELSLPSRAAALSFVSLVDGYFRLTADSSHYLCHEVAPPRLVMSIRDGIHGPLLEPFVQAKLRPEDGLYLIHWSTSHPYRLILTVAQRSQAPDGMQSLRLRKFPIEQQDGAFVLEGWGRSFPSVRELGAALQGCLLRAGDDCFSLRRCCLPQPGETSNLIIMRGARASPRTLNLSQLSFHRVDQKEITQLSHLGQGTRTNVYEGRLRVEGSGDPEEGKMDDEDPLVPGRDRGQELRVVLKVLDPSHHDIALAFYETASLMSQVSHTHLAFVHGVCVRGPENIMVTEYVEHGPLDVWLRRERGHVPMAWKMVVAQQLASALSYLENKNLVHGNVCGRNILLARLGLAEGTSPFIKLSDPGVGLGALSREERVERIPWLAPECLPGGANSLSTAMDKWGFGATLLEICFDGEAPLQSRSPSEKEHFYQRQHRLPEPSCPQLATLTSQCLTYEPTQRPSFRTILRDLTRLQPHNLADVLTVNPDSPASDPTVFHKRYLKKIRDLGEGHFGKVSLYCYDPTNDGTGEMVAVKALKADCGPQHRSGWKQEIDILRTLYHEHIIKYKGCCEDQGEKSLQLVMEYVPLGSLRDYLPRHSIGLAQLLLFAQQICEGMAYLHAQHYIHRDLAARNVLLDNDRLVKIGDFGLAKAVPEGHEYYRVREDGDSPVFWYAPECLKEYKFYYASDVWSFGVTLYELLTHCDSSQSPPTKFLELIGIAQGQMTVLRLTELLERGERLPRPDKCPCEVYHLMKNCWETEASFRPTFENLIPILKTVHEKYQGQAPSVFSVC
Tyrosine-protein kinase JAK1, sequence (P23458 whole entry, the tested form may be a part): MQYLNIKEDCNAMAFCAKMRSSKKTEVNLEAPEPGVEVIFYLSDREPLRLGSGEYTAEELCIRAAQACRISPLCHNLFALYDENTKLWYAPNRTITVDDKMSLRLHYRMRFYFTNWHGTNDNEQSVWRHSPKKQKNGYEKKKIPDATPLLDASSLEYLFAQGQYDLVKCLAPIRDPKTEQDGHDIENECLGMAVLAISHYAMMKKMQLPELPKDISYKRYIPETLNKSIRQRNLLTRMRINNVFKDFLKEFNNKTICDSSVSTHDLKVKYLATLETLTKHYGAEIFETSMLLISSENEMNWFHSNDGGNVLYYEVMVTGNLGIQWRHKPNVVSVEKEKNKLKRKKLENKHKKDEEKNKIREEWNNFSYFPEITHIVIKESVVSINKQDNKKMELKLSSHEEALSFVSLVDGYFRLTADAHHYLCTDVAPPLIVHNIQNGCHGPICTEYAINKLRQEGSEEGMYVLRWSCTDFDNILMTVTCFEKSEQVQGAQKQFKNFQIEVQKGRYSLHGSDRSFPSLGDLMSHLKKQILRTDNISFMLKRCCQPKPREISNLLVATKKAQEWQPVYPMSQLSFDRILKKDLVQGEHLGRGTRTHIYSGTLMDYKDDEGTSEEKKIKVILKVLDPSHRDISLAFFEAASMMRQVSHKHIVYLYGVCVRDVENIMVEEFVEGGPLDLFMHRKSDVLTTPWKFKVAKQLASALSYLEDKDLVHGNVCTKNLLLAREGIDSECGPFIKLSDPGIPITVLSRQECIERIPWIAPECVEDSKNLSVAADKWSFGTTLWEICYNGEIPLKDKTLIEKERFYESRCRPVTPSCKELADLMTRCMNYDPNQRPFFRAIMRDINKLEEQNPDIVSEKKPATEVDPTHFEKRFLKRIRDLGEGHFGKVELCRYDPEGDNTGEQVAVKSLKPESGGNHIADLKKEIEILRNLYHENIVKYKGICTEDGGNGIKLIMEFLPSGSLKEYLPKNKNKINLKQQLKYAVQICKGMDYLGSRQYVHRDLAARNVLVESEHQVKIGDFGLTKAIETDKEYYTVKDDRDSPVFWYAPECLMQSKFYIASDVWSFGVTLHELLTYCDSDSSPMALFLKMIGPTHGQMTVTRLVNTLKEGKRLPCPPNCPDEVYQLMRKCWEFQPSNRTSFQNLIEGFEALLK

SMILES | IC50 [1] [nM] | IC50 [2] [nM] | IC50 [3] [nM] | IC50 [4] [nM] | Activity [5] | Activity (RAW264.7) | Activity [6] | inhibition [7] | inhibition [8] | IC50 [9] [nM] | Ratio IC50 (Homo sapiens [10]) | Ratio IC50 (Homo sapiens [11])
COCCn1cc(Nc2cc(-c3cccc(NC(=O)CC#N)c3)ncn2)cn1 | 65 | 587 | 322 | 2260 |  |  |  |  |  |  |  | 
C=CC(=O)Nc1ccc(-c2cc(Nc3cnn(CCOC)c3)ncn2)cc1 | 67 | > 3000 | 1660 | > 3000 |  |  |  |  |  |  |  | 
C=CC(=O)Nc1ccc(-c2ccnc(Nc3cnn(CCOC)c3)n2)cc1 | 9.1 | 1080 | 1560 | > 3000 | Non-Toxic | Non-Toxic | Non-Toxic | Active | Active |  |  | 
C=CC(=O)Nc1cccc(-c2ccnc(Nc3cnn(CCOC)c3)n2)c1 | 55 | 1290 | 1100 | 2870 |  |  |  |  |  |  |  | 
COCCn1cc(Nc2cc(-c3ccc(NC(=O)CC#N)cc3)ncn2)cn1 | 86 | 1460 | 2680 | 1870 |  |  |  |  |  |  |  | 
C=CC(=O)Nc1cccc(-c2ccnc(Nc3ccc(N4CCOCC4)cc3)n2)c1 | 30 | 1800 | 2120 | 2440 |  |  |  |  |  |  |  | 
C/C=C/C(=O)Nc1ccc(-c2ccnc(Nc3ccc(N4CCOCC4)cc3)n2)cc1 | 6.1 | 1410 | 1150 | > 3000 | Non-Toxic | Non-Toxic | Non-Toxic | Active | Active |  |  | 
C/C=C/C(=O)Nc1cccc(-c2cc(Nc3cnn(CCOC)c3)ncn2)c1 | 29 | 2580 | 1290 | > 3000 |  |  |  |  |  |  |  | 
N#CCC(=O)Nc1cccc(-c2ccnc(Nc3ccc(N4CCOCC4)cc3)n2)c1 | 152 | 216 | 2230 | > 3000 |  |  |  |  |  |  |  | 
CC[C@H]1CN(C(=O)NCC(F)(F)F)C[C@H]1C1C=NC2=CN=C3NC=CC3N21 (some centres undefined) |  |  |  |  |  |  |  |  |  | 120 | 19 | 49

From ChEMBL document CHEMBL4680201, “Design, synthesis, and pharmacological evaluation of 4- or 6-phenyl-pyrimidine derivatives as novel and selective Janus kinase 3 inhibitors” (Eur J Med Chem, 2020)
